This is an account of results in the RepoRT retention time repository (doi:10.1021/acs.analchem.7b00925).

The series is described as follows: HILIC, Merck SeQuant ZIC-HILIC, 100 × 2.1 mm, 3.5 µm, 25 °C, 0.3 mL/min, estimated dead time 0.73 min; A: water + 0.1% formic acid, pH 3; B: acetonitrile + 0.1% formic acid, pH 3; gradient (min/%B) 0/95 1.5/95 13.5/40 15.5/40 29.7/25 33.5/25 34.5/95 41.5/95. Particulars: stereoisomer not certain.

SMILES strings stand for the structures.

Take `NC(Cc1ccc(O)c([N+](=O)[O-])c1)C(=O)O` (stereo not given) [Nitrotyrosine]: the LC retention time was 6.1 min.
Under `C[n+]1cccc(C(N)=O)c1` [1-Methylnicotinamide] stands 8.28 min; under `NC(=O)CCC(NC(=O)Cc1ccccc1)C(=O)O` (stereo not given) [Phenylacetylglutamine], 2.63 min; under `Cn1c(=O)[nH]c2[nH]c(=O)n(C)c2c1=O` [1,7-dimethyluric acid], 3.78 min.
`Nc1ccc(O)cc1` [4-Aminophenol]: the LC retention time was 8.1 min.
Under `NC(CS)C(=O)O` (stereo not given) [Cysteine] stands 7.62 min.
Under `C[N+]1(C)CCCCC1C(=O)[O-]` (stereo not given) [Homostachydrine] stands 6.93 min.
Under `NCCc1c[nH]c2ccccc12` [Tryptamine] stands 6.1 min.
As for `CC(C)C(NC(=O)CN)C(=O)O` (stereo not given) [Glycyl-valine], the LC retention time is 7.08 min.
Under `NC(CCSCC(N)C(=O)O)C(=O)O` (stereo not given) [Cystathionine] stands 10.5 min.
Under `CC(=O)c1cnccn1` [2-Acetylpyrazine] stands 0.96 min; under `O=c1ccn(C2OC(CO)C(O)C2O)c(=O)[nH]1` (stereo not given) [Uridine], 4.98 min; under `O=C1CCCCN1` [2-Piperidone], 1.85 min.
In the case of `Cc1ncc(CO)c(CO)c1O` [Pyridoxine], the LC retention time was 7.08 min.
The figure for `O=S(=O)(O)CCN1CCN(CCS(=O)(=O)O)CC1` [PIPES] is 9.12 min; for `CC(O)C(=O)C1=Nc2c(nc(N)[nH]c2=O)NC1` (stereo not given) [Sepiapterin] it is 4.63 min; for `NC1C(O)OC(CO)C(O)C1O` (stereo not given) [Glucosamine] it is 10.5 min.
For the compound `CC1(C)SC2C(NC(=O)C(N)c3ccc(O)cc3)C(=O)N2C1C(=O)O` (stereo not given) [Amoxicillin], the LC retention time was 6.82 min.
The figure for `NC(CCS)C(=O)O` (stereo not given) [Homocysteine] is 7.41 min.
With `O=C(O)Cc1cccnc1` [3-Pyridylacetic acid], the LC retention time is 5.94 min.
The figure for `CNCCc1cnc[nH]1` [Na-methylhistamine] is 15.2 min.
Under `CC(=O)NC(CCC(=O)O)C(=O)O` (stereo not given) [N-acetylglutamate] stands 3.71 min.
Regarding `O=C(O)c1ccc2ccccc2n1` [Quinaldic acid], the LC retention time was 1.24 min.
Under `NC(Cc1ccc(O)c(O)c1)C(=O)O` (stereo not given) [3,4-dihydroxyphenylalanine] stands 8.17 min.
With `O=C(O)CNC(=O)c1ccccc1` [Hippuric acid], the LC retention time is 1.36 min.
The figure for `CC(CCC(=O)O)C1CCC2C3C(O)CC4CC(O)CCC4(C)C3CCC12C` (stereo not given) [Chenodeoxycholic acid] is 1.3 min; for `NCCCCC(N)C(=O)O` (stereo not given) [Lysine] it is 12.5 min.
The figure for `Nc1ccccc1C(=O)O` [2-Aminobenzoic acid] is 1.24 min; for `CCC(=O)OC(CC(=O)[O-])C[N+](C)(C)C` (stereo not given) [Propionylcarnitine] it is 4.5 min; for `OCCNCCO` [Diethanolamine] it is 8.22 min.
As to `NC(CCCCNC(CCC(=O)O)C(=O)O)C(=O)O` (stereo not given) [Saccharopine], the LC retention time was 10.1 min.
Under `C=C(OP(=O)(O)O)C(=O)[O-]` [Phosphoenol pyruvate] stands 6.22 min.
Take `NC(CCCC(N)C(=O)O)C(=O)O` (stereo not given) [2,6-diaminopimelic acid]: the LC retention time is 11.1 min.
Under `Oc1cccnc1` [3-Hydroxypyridine] stands 6.36 min.
Under `Cc1ccccc1C(=O)NCC(=O)O` [Methylhippurate] stands 1.05 min.
The figure for `O=C(C=Cc1ccc(O)c(O)c1)OC1CC(O)(C(=O)O)CC(O)C1O` (stereo not given) [Chlorogenic acid] is 4.42 min; for `Cn1c(=O)c2c([nH]c(=O)n2C)n(C)c1=O` [1,3,7-trimethyluric acid] it is 1.87 min; for `Nc1nc2c([nH]c(=O)n2C2OC(CO)C(O)C2O)c(=O)[nH]1` (stereo not given) [8-hydroxyguanosine] it is 6.1 min.
As for `OCC(O)C(O)CO` (stereo not given) [Erythritol], the LC retention time is 5.11 min.
For the compound `NCCCC(N)C(=O)O` (stereo not given) [Ornithine], the LC retention time was 12.5 min.
Regarding `CC(=O)NC(CCC[NH+]=C(N)N)C(=O)[O-]` (stereo not given) [N-Acetylarginine], the LC retention time is 8.35 min.
The figure for `CNCC(O)c1ccc(O)c(O)c1` (stereo not given) [Adrenaline] is 8.61 min.
The figure for `NCCc1cc(O)c(O)cc1O` [Hydroxydopamine] is 9.19 min; for `O=C(O)CNC(=O)C=Cc1ccccc1` [N-Cinnamoylglycine] it is 1.34 min.
Under `NC(N)=NCCC[C@H](N)C(=O)O` [L-Arginine] stands 12.2 min.
Turning to `NC(COCc1ccccc1)C(=O)O` (stereo not given) [Benzylserine], the LC retention time is 5.46 min.
The figure for `OCCc1ccc(O)c(O)c1` [3,4-dihydroxyphenylethanol] is 2.27 min.
The figure for `CC(=O)N[C@H]1C(O)O[C@H](CO)[C@@H](O)[C@@H]1O` (stereo partly drawn) [N-Acetyl-D-glucosamine] is 6.24 min; for `[NH3+]CCCCCC(=O)[O-]` [Aminocaproate] it is 7.15 min; for `O=S(=O)(O)CCNC1CCCCC1` [CHES] it is 5 min.
Under `NC(C(=O)O)c1ccccc1` (stereo not given) [Phenylglycine] stands 6.41 min.
As to `CC(=O)NC(Cc1cnc[nH]1)C(=O)O` (stereo not given) [N,N-Acetylhistidine], the LC retention time is 8.16 min.
`CS(=O)CCC(N)C(=O)O` (stereo not given) [Methionine sulfoxide]: the LC retention time is 8.59 min.
The figure for `CC(=O)NC(CCCC[NH3+])C(=O)[O-]` (stereo not drawn) [N-Alpha-acetyllysine] is 8.42 min.
`O=c1[nH]cccc1O` [2,3-Dihydroxypyridine]: the LC retention time was 4.47 min.
Under `O=c1ccn(C2OC(COP(=O)(O)O)C(O)C2O)c(=O)[nH]1` (stereo not given) [Uridine mono-phosphate] stands 6.99 min; under `O=C1OC(CO)C(O)C(O)C1O` (stereo not given) [Gluconolactone], 4.49 min; under `CN1CCCN=C1C=Cc1cccs1` [Pyrantel], 2.3 min.
The figure for `NCC(O)c1ccc(O)c(O)c1` (stereo not given) [Noradrenaline] is 9.31 min.
The figure for `COc1cc(/C=C/C(=O)O)ccc1O` [trans-Ferulic acid] is 1.39 min; for `COC(=O)c1cccnc1` [Methyl nicotinic acid] it is 1.16 min.
For the compound `O=c1[nH]c(=O)c2cn[nH]c2[nH]1` [Alloxanthine], the LC retention time was 4.27 min.
The figure for `CC(CCC(=O)[O-])[N+](C)(C)C` (stereo not given) [4-aminovaleric acid betaine] is 5.95 min; for `O=C(O)Cc1c[nH]c2ccccc12` [3-Indoleacetic acid] it is 1.26 min; for `Cc1ncc(CO)c(C(=O)O)c1O` [4-pyridoxic acid] it is 4.14 min.
The figure for `O=C(O)[C@H]1NCCC1O` (stereo not given in full) [3-hydroxyproline] is 8.12 min; for `CN[C@H](CC(=O)O)C(=O)O` [N-methyl-D-aspartic acid] it is 7.39 min; for `Cn1cncc1CC(NC(=O)CCN)C(=O)O` [L-Anserine] it is 12.6 min.
With `Nc1ncnc2c1ncn2C1OC(COP(=O)(O)O)C(O)C1O` (stereo not given) [Adenosine mono-phosphate], the LC retention time was 8.41 min.
Regarding `CC(=O)N[C@@H](CC(=O)O)C(=O)O` [N-Acetyl-L-aspartic acid], the LC retention time is 4.31 min.
Under `O=C(O)c1cc(O)c(O)c(O)c1` [Gallic acid] stands 4.67 min.
Under `O=C(O)Cc1ccccn1` [2-Pyridylacetic acid] stands 4.67 min.
As to `C[N+](C)(C)[C@@H](Cc1ccccc1)C(=O)[O-]` [Phenylalanine betaine], the LC retention time was 5.5 min.
Under `CN1CCC[C@H]1C(=O)O` [N-Methyl-L-proline] stands 7.26 min; under `CC(=O)NCCCC[C@H]([NH3+])C(=O)[O-]` [N6-Acetyl-L-lysine], 7.59 min; under `O=C(O)CNC(=O)c1ccco1` [2-furoylglycine], 1.46 min.
Under `O=C(O)Cn1ccnc1` [1-Imidazoleacetic acid] stands 7.7 min; under `CC(O)C(O)c1cnc2nc(N)[nH]c(=O)c2n1` (stereo not given) [Biopterin], 6.01 min; under `O=C(O)CNC(=O)C1CCC(=O)N1` (stereo not given) [Pyroglutamylglycine], 4.32 min.
The figure for `OCC1OC(OC2(CO)OC(CO)C(O)C2O)C(O)C(O)C1O` (stereo not given) [Sucrose] is 7.32 min; for `NC(CCO)C(=O)O` (stereo not given) [Homoserine] it is 8.29 min.
Take `NCCc1ccc(O)cc1` [Tyramine]: the LC retention time was 6.81 min.
In the case of `O=c1[nH]cnc2c1ncn2C1CC(O)C(CO)O1` (stereo not given) [2-deoxyinosine], the LC retention time was 4.69 min.
The figure for `O=c1[nH]c2ccccc2o1` [2-Benzoxazolinone] is 1.01 min; for `O=C(O)C=C(CC(=O)O)C(=O)O` [cis-aconitate] it is 4.23 min.
The figure for `NC(=O)CC(N)C(=O)O` (stereo not given) [Asparagine] is 8.67 min.
On to `O=S(=O)(O)CCN1CCOCC1` [MES], for which the LC retention time is 6.42 min.
The figure for `OC1COC(O)C(O)C1O` (stereo not given) [Xylose] is 6.03 min.
Under `CC1CCCN1` (stereo not given) [2-Methylpyrrolidine] stands 6.72 min.
Under `O=C1CC(C(=O)O)NC(=O)N1` (stereo not given) [Dihydroorotic acid] stands 4.02 min.
